Experimental data taken from PubChem BioAssay (NCI).
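Each compound was tested at five concentrations against cells in 96-well plates for 48 hours. GI50: concentration for 50% inhibition of growth. TGI: total growth inhibition.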

Assays:
Test in all cases: NCI-60 cell line screen, 48 h
786-0 renal = tested on: 786-0 renal
A498 renal = tested on: A498 renal
A549 NSCLC = tested on: A549 NSCLC
ACHN renal = tested on: ACHN renal
BT-549 breast = tested on: BT-549 breast
CAKI-1 renal = tested on: CAKI-1 renal
CCRF-CEM leukemia = tested on: CCRF-CEM leukemia
COLO 205 colon = tested on: COLO 205 colon
DU-145 prostate = tested on: DU-145 prostate
EKVX NSCLC = tested on: EKVX NSCLC
HCC-2998 colon = tested on: HCC-2998 colon
HCT-116 colon = tested on: HCT-116 colon
HCT-15 colon = tested on: HCT-15 colon
HL-60(TB) leukemia = tested on: HL-60(TB) leukemia
HOP-62 NSCLC = tested on: HOP-62 NSCLC
HOP-92 NSCLC = tested on: HOP-92 NSCLC
HS 578T breast = tested on: HS 578T breast
HT29 colon = tested on: HT29 colon
IGROV1 ovarian = tested on: IGROV1 ovarian
K-562 leukemia = tested on: K-562 leukemia
KM12 colon = tested on: KM12 colon
LOX IMVI melanoma = tested on: LOX IMVI melanoma
M14 melanoma = tested on: M14 melanoma
MALME-3M melanoma = tested on: MALME-3M melanoma
MCF7 breast = tested on: MCF7 breast
MDA-MB-231 breast = tested on: MDA-MB-231 breast
MDA-MB-435 = tested on: MDA-MB-435
MOLT-4 leukemia = tested on: MOLT-4 leukemia
NCI-H226 lung = tested on: NCI-H226 lung
NCI-H23 lung = tested on: NCI-H23 lung
NCI-H460 lung = tested on: NCI-H460 lung
NCI-H522 lung = tested on: NCI-H522 lung
NCI/ADR-RES ovarian = tested on: NCI/ADR-RES ovarian
OVCAR-3 ovarian = tested on: OVCAR-3 ovarian
OVCAR-4 ovarian = tested on: OVCAR-4 ovarian
OVCAR-5 ovarian = tested on: OVCAR-5 ovarian
OVCAR-8 ovarian = tested on: OVCAR-8 ovarian
PC-3 prostate = tested on: PC-3 prostate
RPMI-8226 leukemia = tested on: RPMI-8226 leukemia
RXF 393 renal = tested on: RXF 393 renal
SF-268 CNS = tested on: SF-268 CNS
SF-295 CNS = tested on: SF-295 CNS
SF-539 CNS = tested on: SF-539 CNS
SK-MEL-2 melanoma = tested on: SK-MEL-2 melanoma
SK-MEL-28 melanoma = tested on: SK-MEL-28 melanoma
SK-MEL-5 melanoma = tested on: SK-MEL-5 melanoma
SK-OV-3 ovarian = tested on: SK-OV-3 ovarian
SN12C renal = tested on: SN12C renal
SNB-19 CNS = tested on: SNB-19 CNS
SNB-75 CNS = tested on: SNB-75 CNS
SR leukemia = tested on: SR leukemia
SW-620 colon = tested on: SW-620 colon
T-47D breast = tested on: T-47D breast
TK-10 renal = tested on: TK-10 renal
U251 CNS = tested on: U251 CNS
UACC-257 melanoma = tested on: UACC-257 melanoma
UACC-62 melanoma = tested on: UACC-62 melanoma
UO-31 renal = tested on: UO-31 renal

For `CO[C@H]1C[C@@H]2CC[C@@H](C)[C@@](O)(O2)C(=O)C(=O)N2CCCC[C@H]2C(=O)O[C@H]([C@H](C)C[C@@H]2CC[C@@H](OC(=O)C(C)(CO)CO)[C@H](OC)C2)CC(=O)[C@H](C)/C=C(\C)[C@@H](O)[C@@H](OC)C(=O)[C@H](C)C[C@H](C)\C=C/C=C/C=C/1C`, the GI50 (786-0 renal) was 0.0149 µM, the TGI (786-0 renal) was > 10 µM and the GI50 (A498 renal) was 0.00187 µM. For the same compound, the GI50 (A549 NSCLC) was 0.067 µM, the TGI (A549 NSCLC) was > 10 µM and the GI50 (ACHN renal) was > 9.24 µM. The TGI (ACHN renal) was > 10 µM, the GI50 (BT-549 breast) was 0.00363 µM and the TGI (BT-549 breast) was > 10 µM. For the same compound, the GI50 (CAKI-1 renal) was 0.0352 µM, the TGI (CAKI-1 renal) was > 10 µM and the GI50 (CCRF-CEM leukemia) was 0.0368 µM. The TGI (CCRF-CEM leukemia) was > 10 µM, the GI50 (COLO 205 colon) was > 5.94 µM and the TGI (COLO 205 colon) was > 10 µM. For the same compound, the GI50 (DU-145 prostate) was 0.045 µM, the TGI (DU-145 prostate) was > 10 µM and the GI50 (EKVX NSCLC) was 0.00167 µM. For the same compound, the TGI (EKVX NSCLC) was > 10 µM, the TGI (HCC-2998 colon) was > 10 µM and the GI50 (HCT-116 colon) was > 10 µM. The TGI (HCT-116 colon) was > 10 µM, the GI50 (HCT-15 colon) was 0.112 µM and the TGI (HCT-15 colon) was > 10 µM. The GI50 (HL-60(TB) leukemia) was > 10 µM, the TGI (HL-60(TB) leukemia) was > 10 µM and the GI50 (HOP-62 NSCLC) was 0.0147 µM. For the same compound, the TGI (HOP-62 NSCLC) was > 10 µM, the GI50 (HOP-92 NSCLC) was 0.00141 µM and the TGI (HOP-92 NSCLC) was > 8.98 µM. The GI50 (HS 578T breast) was 0.00133 µM, the TGI (HS 578T breast) was > 10 µM and the GI50 (HT29 colon) was 1.47 µM. The TGI (HT29 colon) was > 10 µM, the GI50 (IGROV1 ovarian) was < 0.001 µM and the TGI (IGROV1 ovarian) was > 10 µM. For the same compound, the GI50 (K-562 leukemia) was 5.96 µM, the TGI (K-562 leukemia) was > 10 µM and the GI50 (KM12 colon) was > 10 µM. The TGI (KM12 colon) was > 10 µM, the GI50 (LOX IMVI melanoma) was 0.00435 µM and the TGI (LOX IMVI melanoma) was > 10 µM. For the same compound, the GI50 (M14 melanoma) was > 6.06 µM, the TGI (M14 melanoma) was > 10 µM and the GI50 (MALME-3M melanoma) was 0.00766 µM. For the same compound, the TGI (MALME-3M melanoma) was > 10 µM, the GI50 (MCF7 breast) was 0.00422 µM and the TGI (MCF7 breast) was > 10 µM. For the same compound, the GI50 (MDA-MB-231 breast) was > 4.32 µM, the TGI (MDA-MB-231 breast) was > 10 µM and the GI50 (MDA-MB-435) was 2.36 µM. The TGI (MDA-MB-435) was > 10 µM, the GI50 (MOLT-4 leukemia) was 0.22 µM and the TGI (MOLT-4 leukemia) was > 10 µM. For the same compound, the GI50 (NCI-H226 lung) was 0.0273 µM, the TGI (NCI-H226 lung) was > 10 µM and the GI50 (NCI-H23 lung) was 0.0866 µM. The TGI (NCI-H23 lung) was > 10 µM, the GI50 (NCI-H460 lung) was 0.00131 µM and the TGI (NCI-H460 lung) was > 10 µM. The GI50 (NCI-H522 lung) was 0.444 µM, the TGI (NCI-H522 lung) was > 10 µM and the GI50 (NCI/ADR-RES ovarian) was > 4.91 µM. For the same compound, the TGI (NCI/ADR-RES ovarian) was > 10 µM, the GI50 (OVCAR-3 ovarian) was 0.685 µM and the TGI (OVCAR-3 ovarian) was > 10 µM. For the same compound, the GI50 (OVCAR-4 ovarian) was < 0.001 µM, the TGI (OVCAR-4 ovarian) was > 10 µM and the GI50 (OVCAR-5 ovarian) was > 6.89 µM. The TGI (OVCAR-5 ovarian) was > 10 µM, the TGI (OVCAR-8 ovarian) was > 10 µM and the GI50 (PC-3 prostate) was 0.00144 µM. The TGI (PC-3 prostate) was > 10 µM, the GI50 (RPMI-8226 leukemia) was 0.00102 µM and the TGI (RPMI-8226 leukemia) was > 10 µM. For the same compound, the GI50 (RXF 393 renal) was < 0.001 µM, the TGI (RXF 393 renal) was > 10 µM and the TGI (SF-268 CNS) was > 10 µM. For the same compound, the GI50 (SF-295 CNS) was < 0.001 µM, the TGI (SF-295 CNS) was > 10 µM and the GI50 (SF-539 CNS) was 0.00576 µM. For the same compound, the TGI (SF-539 CNS) was > 10 µM, the GI50 (SK-MEL-2 melanoma) was 1.68 µM and the TGI (SK-MEL-2 melanoma) was > 10 µM. The GI50 (SK-MEL-28 melanoma) was 0.0219 µM, the TGI (SK-MEL-28 melanoma) was > 10 µM and the GI50 (SK-MEL-5 melanoma) was 1.35 µM. For the same compound, the TGI (SK-MEL-5 melanoma) was > 10 µM, the GI50 (SK-OV-3 ovarian) was 0.00139 µM and the TGI (SK-OV-3 ovarian) was > 10 µM. For the same compound, the GI50 (SN12C renal) was > 10 µM, the TGI (SN12C renal) was > 10 µM and the TGI (SNB-19 CNS) was > 10 µM. The GI50 (SNB-75 CNS) was < 0.001 µM, the TGI (SNB-75 CNS) was > 10 µM and the GI50 (SR leukemia) was 0.00251 µM. The TGI (SR leukemia) was > 10 µM, the GI50 (SW-620 colon) was > 10 µM and the TGI (SW-620 colon) was > 10 µM. The TGI (T-47D breast) was > 10 µM, the TGI (TK-10 renal) was > 10 µM and the TGI (U251 CNS) was > 10 µM. For the same compound, the GI50 (UACC-257 melanoma) was > 10 µM, the TGI (UACC-257 melanoma) was > 10 µM and the GI50 (UACC-62 melanoma) was 0.0087 µM. The TGI (UACC-62 melanoma) was > 10 µM, the GI50 (UO-31 renal) was 0.00102 µM and the TGI (UO-31 renal) was > 10 µM.
In the case of `Cc1c(C)c2c(c(N)c1C#N)C(=O)N(O)C2=O`, the TGI (786-0 renal) is reported as > 100 µM, the TGI (A498 renal) is reported as > 100 µM and the TGI (A549 NSCLC) is reported as > 100 µM. For the same compound, the TGI (ACHN renal) was > 100 µM, the TGI (BT-549 breast) was > 100 µM and the TGI (CAKI-1 renal) was > 100 µM. The TGI (CCRF-CEM leukemia) was > 100 µM, the TGI (COLO 205 colon) was > 100 µM and the TGI (DU-145 prostate) was > 100 µM. For the same compound, the TGI (EKVX NSCLC) was > 100 µM, the TGI (HCC-2998 colon) was > 100 µM and the TGI (HCT-116 colon) was > 100 µM. For the same compound, the TGI (HCT-15 colon) was > 100 µM, the TGI (HL-60(TB) leukemia) was > 100 µM and the TGI (HOP-92 NSCLC) was > 100 µM. For the same compound, the TGI (HS 578T breast) was > 100 µM, the TGI (HT29 colon) was > 100 µM and the TGI (IGROV1 ovarian) was > 100 µM. For the same compound, the TGI (K-562 leukemia) was > 100 µM, the TGI (KM12 colon) was > 100 µM and the TGI (M14 melanoma) was > 100 µM. The TGI (MALME-3M melanoma) was > 100 µM, the TGI (MCF7 breast) was > 100 µM and the TGI (MDA-MB-231 breast) was > 100 µM. For the same compound, the TGI (MDA-MB-435) was > 100 µM, the TGI (MOLT-4 leukemia) was > 100 µM and the TGI (NCI-H226 lung) was > 100 µM. For the same compound, the TGI (NCI-H23 lung) was > 100 µM, the TGI (NCI-H460 lung) was > 100 µM and the TGI (NCI-H522 lung) was > 100 µM. For the same compound, the TGI (NCI/ADR-RES ovarian) was > 100 µM, the TGI (OVCAR-3 ovarian) was > 100 µM and the TGI (OVCAR-4 ovarian) was > 100 µM. The TGI (OVCAR-5 ovarian) was > 100 µM, the TGI (OVCAR-8 ovarian) was > 100 µM and the TGI (PC-3 prostate) was > 100 µM. For the same compound, the TGI (RPMI-8226 leukemia) was > 100 µM, the TGI (RXF 393 renal) was > 100 µM and the TGI (SF-268 CNS) was > 100 µM. The TGI (SF-295 CNS) was > 100 µM, the TGI (SF-539 CNS) was > 100 µM and the TGI (SK-MEL-2 melanoma) was > 100 µM. For the same compound, the TGI (SK-MEL-28 melanoma) was > 100 µM, the TGI (SK-MEL-5 melanoma) was > 100 µM and the TGI (SK-OV-3 ovarian) was > 100 µM. For the same compound, the TGI (SN12C renal) was > 100 µM, the TGI (SNB-19 CNS) was > 100 µM and the TGI (SNB-75 CNS) was > 100 µM. For the same compound, the TGI (SR leukemia) was > 100 µM, the TGI (SW-620 colon) was > 100 µM and the TGI (T-47D breast) was > 100 µM. The TGI (TK-10 renal) was > 100 µM, the TGI (U251 CNS) was > 100 µM and the TGI (UACC-257 melanoma) was > 100 µM. The TGI (UACC-62 melanoma) was > 100 µM and the TGI (UO-31 renal) was > 100 µM.
